Values joined by “and” are separate entries in the source; they are usually repeats but may differ in a detail not shown here. Equal entries are not always repeated.
Columns and labels:
[1] = system: patients with tear deficient dry eye; details: in vivo
[2] = system: patients with tear deficient dry eye; details: human, in vivo
[3] = system: subjects regularly wearing SCL; design: species or system human; details: in vivo
[4] = system: patients with tear deficient dry eye; details: human, in vivo; remark: listed apart in the source
[5] = system: subjects regularly wearing SCL; design: species or system human; details: in vivo; remark: listed apart in the source
normal subjects [6] = details: in vivo
normal subjects [7] = system: normal subjects; design: species or system human; details: in vivo
tear deficient dry eyes [8] = system: tear deficient dry eyes; design: species or system human; details: in vivo
[9] = system: subjects regularly wearing SCL; design: species or system human; details: in vivo; remark: listed apart in the source
normal subjects [10] = system: normal subjects; design: species or system human; details: in vivo; remark: listed apart in the source
normal subjects [11] = system: normal subjects; design: species or system human; details: in vivo; remark: listed apart in the source
tear deficient dry eyes [12] = system: tear deficient dry eyes; design: species or system human; details: in vivo; remark: listed apart in the source

Thiopropanal S-Oxide [lacrimatory component]
effects on the ocular surface epithelium [1]: No effects on the ocular surface epithelium was observed | time after exposure at which ΔR was maximum [2]: 2 min | ΔR (5 minutes) [2]: ~0 mm | NIBUT [3]: 9.1 ± 2.1 s | degree of the stimulation, four-level category rating [4]: zero | mean degree of the stimulation, four-level category rating [4]: 1.8 and 1.7 | time taken for stimulation to be felt (ST), mean value±standard deviation [4]: 18.8 ± 9.3 s and 21.4 ± 9.8 s | R (radius of tear meniscus curvature), mean value±standard deviation [5]: 0.54±0.14 mm | adverse or lingering effects of the exposure on the ocular surface (normal subjects [6]): not found | lacrimation in the contralateral non-exposed eye (normal subjects [7]): lacrimation is induced in the contralateral non-exposed eye | time after exposure by which ΔR reached the maximum (normal subjects [7]): ≤ 1 min | ΔR (2 minutes) (normal subjects [7]): 0.25±0.14 mm | ΔR (10 minutes) (normal subjects [7]): ~0 mm | ΔR in the contralateral non-exposed eye (normal subjects [7]): 0.30 mm | radius of tear meniscus curvature R, mean value±standard deviation (tear deficient dry eyes [8]): 0.34±0.20 mm | grades of specular image of the tears on SCL [9]: 1.4±0.5 | degree of stimulation (normal subjects [10]): 0 | mean degree of the stimulation, four-level category rating (normal subjects [10]): 3 and 1.5 | mean time taken for the stimulation to be felt (ST) (normal subjects [10]): 9.8 s and 14.5 s and 13.3 s | time taken for stimulation to be felt (ST), mean value±standard deviation (normal subjects [10]): 9.8 ± 1.5 s | reflex lacrimation by nasal exposure (normal subjects [11]): no reflex lacrimation is induced | extensibility of the tear lipid layer, Grade, mean value±standard deviation (tear deficient dry eyes [12]): 1.5±0.6
